“Also recorded” adds a separate entry of the source.
Experiments:
[1] = system: LD3; assay: SPR drug sensitivity of drug receptor variants (5 µM analyte mixed with 10 µM inhibitor, LD3 immobilized chip); format: binding; conditions: for drug resistance to venetoclax (binding response to LD3): 5 µM Bcl2 or variant + 10 µM Venetoclax
Description: Drug IC50 values for disrupting heterodimers were measured on a Biacore 8K device. A 5 µM portion of analyte was mixed with 10 µM of BclXL or Bcl2 inhibitors according to the analyte. The mixtures of analyte and drug were injected onto the LD3 immobilized channel. […]
(§1) Bcl2high-v(2,4,5) measured by SPR. 5 μM of Bcl2 or indicated variants were mixed with 10 μM of […]

[2] = system: GEMS receptors with CBPvene (Bcl2–LD3 and Bcl2high variants), STAT3-driven SEAP in HEK293T cells; assay: GEMS SEAP reporter assay, CBPvene (Bcl2high, LD3-v and Bcl2-v variants) with venetoclax; format: cell-based; conditions: Supp Fig 5c; for behavior of Bcl2high variants screened in CBP constructs: venetoclax exceeding 100 nM
[3] = system: LD3; assay: SPR assay for protein–protein binding affinities (drug receptor variants over immobilized LD3); parameters: unit not given here; conditions: Supp Fig 6a
Description: SPR measurements were performed on a Biacore 8K device (GE Healthcare). The mutual designed binder (LD3) was immobilized on a CM5 chip (GE Life Science) as a ligand with the concentration at 5 μg ml^−1 for 120 s contact time in pH 4.5 sodium acetate solutions. Serial dilutions of the analytes (BclXL or Bcl2 and their variants) in HBS-EP buffer (10 mM HEPES, 150 mM NaCl, 3 mM EDTA and 0.005% surfactant P20; GE Life Science) were flowed over the immobilized chips. After each injection cycle, surface regeneration was performed using 10 mM NaOH (pH 11.95). Affinities (Kd) were obtained using a steady binding model of the equilibrium model with Biacore 8K evaluation software. […]
Dissociation constant measurement of BclXLhigh-v(1-3) and LD3. Equilibrium curves are fitted using
BclXLhigh-v1 (purple), BclXLhigh-v2 (blue), […]
Supplementary Figure 6: Binding affinities and drug resistances of Bcl2high-v(2,4,5) assessed by
a) Measurement of dissociation constants for Bcl2high-v(2,4,5) and LD3 interactions. Equilibrium curves
as §1

For Bcl2: wild-type Bcl2, druglow receptor, the “drug resistance to venetoclax (binding response to LD3)” value (shortened to “drug resistance to venetoclax”) [1] was “completely inhibited”.

Bcl2high-v4: Bcl2 variant (G101V) was tested, and the “drug resistance to venetoclax” value [1] was “intermediate binding responses; also recorded: more resistant than Bcl2high-v2”, the “SEAP, screening of Bcl2high variants (raw)” value (shortened to “SEAP, screening … (raw)”) ([2]; Venetoclax 0) was 6.603 and the “SEAP, screening of Bcl2high variants, Normalized” value (shortened to “SEAP, screening … Normalized”) ([2]; Venetoclax 0) was 2.711. For the same substance, the “SEAP, screening … (raw)” value ([2]; Venetoclax 0.0001) was 4.145, the “SEAP, screening … Normalized” value ([2]; Venetoclax 0.0001) was 0 and the “SEAP, screening … (raw)” value ([2]; Venetoclax 0.001) was 8.202. For the same substance, the “SEAP, screening … Normalized” value ([2]; Venetoclax 0.001) was 4.476, the “SEAP, screening … (raw)” value ([2]; Venetoclax 0.01) was 7.174 and the “SEAP, screening … Normalized” value ([2]; Venetoclax 0.01) was 3.342. The “SEAP, screening … (raw)” value ([2]; Venetoclax 0.1) was 7.666, the “SEAP, screening … Normalized” value ([2]; Venetoclax 0.1) was 3.884 and the “SEAP, screening … (raw)” value ([2]; Venetoclax 1) was 5.264. For the same substance, the “SEAP, screening … Normalized” value ([2]; Venetoclax 1) was 1.235, the “SEAP, screening … (raw)” value ([2]; Venetoclax 10) was 24.5053 and the “SEAP, screening … Normalized” value ([2]; Venetoclax 10) was 22.4596. The “SEAP, screening … (raw)” value ([2]; Venetoclax 100) was 94.7979, the “SEAP, screening … Normalized” value ([2]; Venetoclax 100) was 100 and the “SEAP, screening … (raw)” value ([2]; Venetoclax 1000) was 68.7379. For the same substance, the “SEAP, screening … Normalized” value ([2]; Venetoclax 1000) was 71.253, the “behavior of Bcl2high variants screened in CBP constructs” value [2] was “sharp decrease” and the “SPR equilibrium binding response to LD3” value ([3]; head: Venetoclax (nM) 1) was 2.1472. The “SPR equilibrium binding response to LD3” value ([3]; head: Venetoclax (nM) 3.9) was 10.112, the “SPR equilibrium binding response to LD3” value ([3]; head: Venetoclax (nM) 15.6) was 33.8883 and the “SPR equilibrium binding response to LD3” value ([3]; head: Venetoclax (nM) 62.5) was 70.0059.

With Bcl2high-v5: Bcl2 variant (D103Y) the “drug resistance to venetoclax” value [1] was “intermediate binding responses”, the “SEAP, screening … (raw)” value ([2]; Venetoclax 0) was 2.765 and the “SEAP, screening … Normalized” value ([2]; Venetoclax 0) was 3.49. The “SEAP, screening … (raw)” value ([2]; Venetoclax 0.0001) was 2.523, the “SEAP, screening … Normalized” value ([2]; Venetoclax 0.0001) was 2.743 and the “SEAP, screening … (raw)” value ([2]; Venetoclax 0.001) was 3.266. The “SEAP, screening … Normalized” value ([2]; Venetoclax 0.001) was 5.042, the “SEAP, screening … (raw)” value ([2]; Venetoclax 0.01) was 2.791 and the “SEAP, screening … Normalized” value ([2]; Venetoclax 0.01) was 3.572. For the same substance, the “SEAP, screening … (raw)” value ([2]; Venetoclax 0.1) was 1.758, the “SEAP, screening … Normalized” value ([2]; Venetoclax 0.1) was 0.3721 and the “SEAP, screening … (raw)” value ([2]; Venetoclax 1) was 1.638. For the same substance, the “SEAP, screening … Normalized” value ([2]; Venetoclax 1) was 0, the “SEAP, screening … (raw)” value ([2]; Venetoclax 10) was 7.093 and the “SEAP, screening … Normalized” value ([2]; Venetoclax 10) was 16.9022. The “SEAP, screening … (raw)” value ([2]; Venetoclax 100) was 33.9111, the “SEAP, screening … Normalized” value ([2]; Venetoclax 100) was 100 and the “SEAP, screening … (raw)” value ([2]; Venetoclax 1000) was 29.4352. The “SEAP, screening … Normalized” value ([2]; Venetoclax 1000) was 86.1311, the “behavior of Bcl2high variants screened in CBP constructs” value [2] was “sharp decrease” and the “SPR equilibrium binding response to LD3” value ([3]; head: Venetoclax (nM) 1) was 0.849. The “SPR equilibrium binding response to LD3” value ([3]; head: Venetoclax (nM) 3.9) was 3.873, the “SPR equilibrium binding response to LD3” value ([3]; head: Venetoclax (nM) 15.6) was 14.2982 and the “SPR equilibrium binding response to LD3” value ([3]; head: Venetoclax (nM) 62.5) was 37.6477.

In the case of Bcl2high-v7: Bcl2 variant (D103E), the “SEAP, screening … (raw)” value ([2]; Venetoclax 0) is reported as 6.691, the “SEAP, screening … Normalized” value ([2]; Venetoclax 0) is reported as 0 and the “SEAP, screening … (raw)” value ([2]; Venetoclax 0.0001) is reported as 7.426. The “SEAP, screening … Normalized” value ([2]; Venetoclax 0.0001) was 0.7213, the “SEAP, screening … (raw)” value ([2]; Venetoclax 0.001) was 7.62 and the “SEAP, screening … Normalized” value ([2]; Venetoclax 0.001) was 0.9112. For the same substance, the “SEAP, screening … (raw)” value ([2]; Venetoclax 0.01) was 12.5658, the “SEAP, screening … Normalized” value ([2]; Venetoclax 0.01) was 5.763 and the “SEAP, screening … (raw)” value ([2]; Venetoclax 0.1) was 10.093. The “SEAP, screening … Normalized” value ([2]; Venetoclax 0.1) was 3.337, the “SEAP, screening … (raw)” value ([2]; Venetoclax 1) was 14.5573 and the “SEAP, screening … Normalized” value ([2]; Venetoclax 1) was 7.717. The “SEAP, screening … (raw)” value ([2]; Venetoclax 10) was 26.197, the “SEAP, screening … Normalized” value ([2]; Venetoclax 10) was 19.1352 and the “SEAP, screening … (raw)” value ([2]; Venetoclax 100) was 97.9682. For the same substance, the “SEAP, screening … Normalized” value ([2]; Venetoclax 100) was 89.5427, the “SEAP, screening … (raw)” value ([2]; Venetoclax 1000) was 108.628 and the “SEAP, screening … Normalized” value ([2]; Venetoclax 1000) was 100.

In the case of “BclXL: wild-type BclXL, druglow receptor”, the “drug resistance to A-1155463 (binding response to LD3)” value ([1]; 5 µM BclXL or variant + 10 µM A-1155463) is reported as “completely inhibited”.

— paper PMC11062894, “Protein-based bandpass filters for controlling cellular signaling with chemical inputs” (Nature Chemical Biology, 2023)
